The values that follow come from ChEMBL document CHEMBL1201862, “PubChem BioAssay data set” (2004).

Molecules are shown by their SMILES.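 Test compounds were applied to cells in 96-well plates for 48 hours at 5 doses. The concentration for 50% growth inhibition is given as GI50.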 Active and inactive are the calls of the source. Rule as the data show it: active = GI50 up to about 1.1 µM and inactive = higher. Residues, ends and D or L forms follow the SMILES beside them. *: point of attachment. Boc = CC(C)(C)OC(=O)*; OBn = c1ccc(CO*)cc1

Experiment in all cases: inhibition of tumour cell growth, NCI panel, 48 h
The subject of assay [1] is SK-MEL-2.
Assay [2] deals with UACC-62.
The test system of assay [3] is MDA-MB-435.
Assay [4] concerns LOX IMVI.
Assay [5] concerns T47D.
Assay [6] relates to COLO 205.
The test system of assay [7] is OVCAR-5.
Assay [8] concerns CCRF-CEM.
Assay [9] deals with DU-145.
The test system of assay [10] is NCI-H460.
In assay [11] the test system is SF-268.
Assay [12] concerns HT-29.
In assay [13] the test system is K562.
Assay [14] relates to MCF7.
Assay [15] deals with UACC-257.
In assay [16] the test system is A549.
The subject of assay [17] is Hs-578T.
In assay [18] the test system is SK-MEL-5.

Turning to `CC(C)C(NC(=O)C(Cc1ccccc1)NC(=O)OC(C)(C)C)C(=O)NCC(=O)OCc1ccccc1` (stereo not drawn) (Boc-Phe-Val-Gly-OBn; configuration not given here), the GI50 in assay [1] was 17.8 µM (inactive); in assay [2], 16.9 µM (inactive); in assay [3], 6.92 µM (inactive); in [4], 14.9 µM (inactive); in assay [5] it was 18.7 µM (inactive); in assay [6], 20.6 µM (inactive). The GI50 in [7] is 15.1 µM (inactive); in [8], 20 µM (inactive); in assay [9], 14.3 µM (inactive); in assay [10] it was 18.8 µM (inactive); in assay [11], 14.7 µM (inactive); in [12], 17.5 µM (inactive). Besides, the values for the GI50 in assay [13], in assay [14] and in [15] were 7.76 µM (inactive), > 10 µM (inactive) and 20.4 µM (inactive), respectively.

With `COc1cc2c(c(OC)c1OC)C(=O)[C@H](O)[C@H]2NC(N)=O`, the GI50 in assay [2] was 17.6 µM (inactive); in assay [3] it was > 100 µM (inactive); in assay [4], 72.1 µM (inactive); in assay [16], > 100 µM (inactive); in assay [6] it was 50.7 µM (inactive); in assay [7], 76.7 µM (inactive). The GI50 in assay [8] is > 100 µM (inactive); in assay [9], > 100 µM (inactive); in [10], 66.8 µM (inactive); in assay [11], > 100 µM (inactive); in assay [12] it was > 100 µM (inactive); in assay [13], > 100 µM (inactive). Moreover, the GI50 was 60 µM (inactive) in assay [17], > 100 µM (inactive) in assay [14], 40.7 µM (inactive) in assay [18] and 85.5 µM (inactive) in [15].

As to `CC1=CC[C@@H]2[C@@H](CC[C@@]2(C)O)C(C)(C)[C@H]1CC[C@@H]1[C@@]2(C)CC[C@@H](O)C(C)(C)O[C@@H]2CC[C@]1(C)O`, the GI50 in assay [1] is 34 µM (inactive); in assay [2] it was 15.5 µM (inactive); in [3] it was 22.3 µM (inactive); in assay [4] it was 16.3 µM (inactive); in [5] it was 39.2 µM (inactive); in assay [16], 27.3 µM (inactive). Also, the GI50 in assay [6] is 19.4 µM (inactive); in assay [7] it was 29.9 µM (inactive); in [8], > 10 µM (inactive); in assay [9] it was 36.3 µM (inactive); in assay [10], 17.7 µM (inactive); in assay [13], 15.3 µM (inactive). Moreover, the GI50 is 31 µM (inactive) in [14], 13.3 µM (inactive) in assay [18] and 25.6 µM (inactive) in assay [15].

Take `CCOC(=O)C(=Cc1ccccc1Cl)C(=O)OCC`: the GI50 in assay [1] is 2.03 µM (inactive); in [2] it was 1.69 µM (inactive); in [3], 1.13 µM (inactive); in assay [4], 1.75 µM (inactive); in [5] it was 2.64 µM (inactive); in assay [16], 2.21 µM (inactive). In addition, the GI50 in [6] was 1.57 µM (inactive); in assay [7] it was 1.88 µM (inactive); in assay [8], 0.705 µM (active); in [9], 1.92 µM (inactive); in assay [10] it was 3.21 µM (inactive); in assay [11], 2.19 µM (inactive). Further, the GI50 in assay [12] was 1.43 µM (inactive); in [13], 1.15 µM (inactive); in assay [17], 2.89 µM (inactive); in [18] it was 2.06 µM (inactive); in [15], 1.82 µM (inactive).

`COc1cccc(NC(=O)c2c(N)n[nH]c2SC)c1`: the GI50 in assay [1], in assay [2], in [3], in [4], in [16] and in [6] was > 100 µM (inactive) each time. For the same molecule, the GI50 in [7], in assay [8], in [10], in [11], in assay [12] and in assay [13] was > 100 µM (inactive) throughout. For the same molecule, the GI50 in assay [17], in assay [14], in assay [18] and in assay [15] was > 100 µM (inactive) throughout.

For `CCOC(=O)c1c(-c2cccc3ccccc23)c(C#N)c(=S)n(C2OC(COC(C)=O)C(OC(C)=O)C(OC(C)=O)C2OC(C)=O)c1C` (centres undefined), the GI50 is 64.1 µM (inactive) in assay [1]; > 100 µM (inactive) in [2]; > 100 µM (inactive) in [3]; > 100 µM (inactive) in assay [4]; > 100 µM (inactive) in [5]; > 100 µM (inactive) in assay [16]. For the same molecule, the GI50 in assay [6], in assay [7], in [8], in assay [9], in assay [10] and in assay [11] was > 100 µM (inactive) throughout. Besides, the GI50 in [12], in assay [13], in [14], in assay [18] and in assay [15] was > 100 µM (inactive) throughout.

As to `CC(C)=Nn1cnc(C(=N)C#N)c1N`, the GI50 in [1], in assay [2], in assay [16], in assay [6], in assay [7] and in assay [8] was > 100 µM (inactive) throughout. The GI50 in assay [9], in assay [10], in assay [11], in assay [12], in [13] and in assay [14] was > 100 µM (inactive) in each case. The GI50 is > 10 µM (inactive) in assay [18] and > 100 µM (inactive) in assay [15].

Turning to `C[C@@H](c1ccccc1)n1c(N)c(C#N)c2ccc([N+](=O)[O-])cc2c1=O`, the GI50 in assay [1] was > 100 µM (inactive); in assay [2] it was 13.2 µM (inactive); in [3], 14.2 µM (inactive); in [4], 14.2 µM (inactive); in assay [5], 15.7 µM (inactive); in assay [16] it was > 100 µM (inactive). Also, the GI50 in assay [6] was 15 µM (inactive); in assay [8] it was 14.6 µM (inactive); in assay [9] it was 15.9 µM (inactive); in assay [10], 14.5 µM (inactive); in assay [11] it was 29.7 µM (inactive); in assay [12], 14.5 µM (inactive). The GI50 in [13] is 12.8 µM (inactive); in [17], 18.2 µM (inactive); in assay [18], 16.7 µM (inactive); in [15] it was 18.7 µM (inactive).

Take `Cc1ccc(NC(S)=Nc2c(C)n(C)n(-c3ccccc3)c2=O)cc1`: the GI50 in [2], in assay [3], in assay [4], in assay [16], in assay [6] and in assay [7] was > 100 µM (inactive) each time. The GI50 in [8], in assay [9], in assay [10], in assay [11], in assay [12] and in [13] was > 100 µM (inactive) each time. Moreover, the GI50 in assay [17], in [14], in assay [18] and in assay [15] was > 100 µM (inactive) in each case.

Consider `CC(=O)c1sc(Nc2ccc(Cl)c(Cl)c2)nc1C`, for which the GI50 is > 100 µM (inactive) in assay [2]; > 100 µM (inactive) in assay [3]; > 100 µM (inactive) in assay [4]; 40 µM (inactive) in [5]; 96.6 µM (inactive) in assay [16]; > 100 µM (inactive) in assay [6]. In addition, the GI50 in [7] is > 100 µM (inactive); in assay [9] it was > 100 µM (inactive); in assay [10] it was > 100 µM (inactive); in [11] it was > 100 µM (inactive); in assay [12] it was 76.4 µM (inactive); in [14], 37.9 µM (inactive). The GI50 in [18] is > 100 µM (inactive); in [15], 68.5 µM (inactive).

As for `O=C(CC(C(=O)c1ccsc1)c1cccs1)c1ccsc1` (centres undefined), the GI50 in assay [1] was 94 µM (inactive); in assay [2], 31.5 µM (inactive); in assay [3], 34.8 µM (inactive); in assay [4] it was 34.1 µM (inactive); in assay [5], 21.4 µM (inactive); in assay [16], 46.6 µM (inactive). The GI50 in assay [6] is 45.1 µM (inactive); in assay [7], > 100 µM (inactive); in assay [8] it was 15.2 µM (inactive); in [9] it was 75.7 µM (inactive); in assay [10], 53.8 µM (inactive); in [11], 85.9 µM (inactive). The GI50 in [12] is 63.1 µM (inactive); in [13], 42.8 µM (inactive); in assay [14], 39 µM (inactive); in [18] it was 31.4 µM (inactive); in [15], 51.4 µM (inactive).

Turning to `COC(=O)CCC(C)C1CCC2C3C(C[C@H](OC(C)=O)[C@]12C)[C@@]1(C)CCC2(C[C@H]1C[C@H]3OC(C)=O)OOC1(CC[C@]3(C)C4C[C@H](OC(C)=O)[C@]5(C)C(C(C)CCC(=O)OC)CCC5C4[C@H](OC(C)=O)C[C@@H]3C1)OO2` (some centres undefined), the GI50 in assay [1] was > 100 µM (inactive); in [3] it was > 100 µM (inactive); in assay [4], > 100 µM (inactive); in assay [16] it was 91.8 µM (inactive); in [6], > 100 µM (inactive); in assay [7] it was > 100 µM (inactive). Moreover, the GI50 in assay [8] was 14.8 µM (inactive); in assay [9], 73.1 µM (inactive); in [10], 50.7 µM (inactive); in [11], 92 µM (inactive); in assay [12], > 100 µM (inactive); in [13], > 100 µM (inactive). The GI50 in assay [17], in assay [14], in assay [18] and in assay [15] was > 100 µM (inactive) throughout.
